Data set [1] deals with T1, Apelin receptor (Homo sapiens, UniProt P35414).
T1 sequence (P35414 whole entry): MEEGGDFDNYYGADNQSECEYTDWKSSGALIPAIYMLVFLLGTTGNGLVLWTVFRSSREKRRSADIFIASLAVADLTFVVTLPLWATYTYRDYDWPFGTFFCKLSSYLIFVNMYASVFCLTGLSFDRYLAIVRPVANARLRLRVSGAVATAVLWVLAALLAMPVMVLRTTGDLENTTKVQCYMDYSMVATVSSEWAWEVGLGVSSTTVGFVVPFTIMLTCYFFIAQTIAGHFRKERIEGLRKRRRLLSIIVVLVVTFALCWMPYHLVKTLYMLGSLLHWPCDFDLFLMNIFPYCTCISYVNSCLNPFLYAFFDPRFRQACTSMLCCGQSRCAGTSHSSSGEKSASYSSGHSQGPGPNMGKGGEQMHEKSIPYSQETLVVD
Put plainly: Activation of APJ receptor (unknown origin) expressed in Chem-5 cells assessed as stimulation of Ca2+ mobilization by Calcium 6-GF dye based fluorescence based assay. The format is functional, cell-based. For orientation: Calcium assays in cells follow changes in intracellular calcium, usually with a dye or a luminescent sensor.

Data set [2] addresses T2, Apelin receptor (Rattus norvegicus, UniProt Q9JHG3).
T2 sequence (Q9JHG3 whole entry): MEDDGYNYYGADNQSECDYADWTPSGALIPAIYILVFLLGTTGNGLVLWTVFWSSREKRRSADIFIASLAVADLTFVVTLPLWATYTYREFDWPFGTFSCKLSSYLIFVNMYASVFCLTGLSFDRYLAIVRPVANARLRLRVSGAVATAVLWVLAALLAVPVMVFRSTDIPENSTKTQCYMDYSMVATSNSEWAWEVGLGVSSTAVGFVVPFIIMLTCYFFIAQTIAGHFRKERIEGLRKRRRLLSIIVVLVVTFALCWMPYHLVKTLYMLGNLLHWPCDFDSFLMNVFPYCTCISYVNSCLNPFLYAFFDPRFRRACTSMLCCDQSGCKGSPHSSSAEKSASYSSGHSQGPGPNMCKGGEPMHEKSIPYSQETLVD
As to the kind of experiment: Displacement of [125I]-pyr-1-apelin-13 from EGFP-tagged wild-type rat apelin receptor expressed in CHO cell membranes by gamma counting method. Further details: species or system Cell membrane. (Loss of bound radioactivity is the signal in a displacement assay; it reports binding, not function.)

The test system of data set [3] is Mus musculus. As to the kind of experiment: Cardioprotective activity in C57BL/6 mouse assessed as reduction in mean arterial blood pressure at 1.4 uM/kg, iv measured after 15 mins relative to control. The format is functional. The conditions noted are these: 0.25 h.
The nature of data set [4]: Half life in human plasma at 400 uM by HPLC analysis. Format: ADME, cell-free.

From ChEMBL document CHEMBL4699534, “Optimizing PEG-Extended Apelin Analogues as Cardioprotective Drug Leads: Importance of the KFRR Motif and Aromatic Head Group for Improved Physiological Activity” (J Med Chem, 2020) come the findings set out here.

Non-standard residues stand in square brackets, D forms with d. Residues, ends and D or L forms follow the SMILES beside them. Phe(4-Br) = N[C@@H](Cc1ccc(Br)cc1)C(=O)O; PEG7 = NCCOCCOCCOCCOCCOCCOCCOCCC(=O)O; NMeR = CN[C@@H](CCCNC(=N)N)C(=O)O; αMeR = C[C@](N)(CCCNC(=N)N)C(=O)O; NMeL = CN[C@@H](CC(C)C)C(=O)O; Nle = CCCC[C@H](N)C(=O)O; Aib = CC(C)(N)C(=O)O

Usually EC50 stands for the concentration that produces a half-maximal response. By IC50 is commonly meant the concentration that inhibits the measured activity by half. Read a high IC50 as lower potency. By half-life is commonly meant the time in which the quantity being followed falls by half. A low value points to fast loss.

With `CSCC[C@H](NC(=O)[C@@H]1CCCN1C(=O)CNC(=O)[C@H](CCCCN)NC(=O)[C@H](Cc1c[nH]cn1)NC(=O)[C@H](CO)NC(=O)[C@H](CC(C)C)NC(=O)[C@H](CCCNC(=N)N)NC(=O)[C@@H]1CCCN1C(=O)[C@H](CCCNC(=N)N)NC(=O)[C@H](CCC(N)=O)NC(=O)[C@H](CCCNC(=N)N)NC(=O)[C@H](CCCNC(=N)N)NC(=O)[C@H](C)NC(=O)[C@@H](N)CCCCN)C(=O)N1CCC[C@H]1C(=O)N[C@@H](Cc1ccccc1)C(=O)O`, the EC50 in data set [1] was 6.17 nM. This compound also had an IC50 in data set [2] of 1 nM. Further, in data set [3], the Activity is given as -3 mmHg.

`CSCC[C@H](NC(=O)[C@@H]1CCCN1C(=O)CNC(=O)[C@H](CCCCN)NC(=O)[C@H](Cc1c[nH]cn1)NC(=O)[C@H](CO)NC(=O)[C@H](CC(C)C)NC(=O)[C@H](CCCNC(=N)N)NC(=O)[C@@H]1CCCN1C(=O)[C@H](CCCNC(=N)N)NC(=O)[C@H](CCC(N)=O)NC(=O)[C@H](C)NC(=O)[C@H](CCCNC(=N)N)NC(=O)[C@H](Cc1ccccc1)NC(=O)[C@@H](N)CCCCN)C(=O)N1CCC[C@H]1C(=O)N[C@@H](Cc1ccccc1)C(=O)O`: the EC50 in data set [1] was 74.1 nM. In data set [2], this compound had an IC50 of 2.19 nM. In data set [3], the Activity is -9 mmHg.

As to `CSCC[C@H](NC(=O)[C@@H]1CCCN1C(=O)CNC(=O)[C@H](CCCCN)NC(=O)[C@H](Cc1c[nH]cn1)NC(=O)[C@H](CO)NC(=O)[C@H](CC(C)C)NC(=O)[C@H](CCCNC(=N)N)NC(=O)[C@@H]1CCCN1C(=O)[C@H](CCCNC(=N)N)NC(=O)[C@H](CCC(N)=O)NC(=O)[C@H](CCCNC(=N)N)NC(=O)[C@H](CCCNC(=N)N)NC(=O)[C@H](Cc1ccccc1)NC(=O)[C@H](C)N)C(=O)N1CCC[C@H]1C(=O)N[C@@H](Cc1ccccc1)C(=O)O`, the EC50 in data set [1] was 5.37 nM. In data set [2], this compound showed an IC50 of 1 nM. Besides, in data set [3], the Activity was -14 mmHg.

`CCCC[C@H](NC(=O)[C@@H]1CCCN1C(=O)CNC(=O)[C@H](CCCCN)NC(=O)[C@H](Cc1c[nH]cn1)NC(=O)[C@H](CO)NC(=O)[C@H](CC(C)C)N(C)C(=O)[C@H](CCCNC(=N)N)NC(=O)[C@@H]1CCCN1C(=O)[C@H](CCCNC(=N)N)NC(=O)[C@H](CCC(N)=O)NC(=O)CCOCCOCCOCCOCCOCCOCCOCCOCCOCCOCCNC(=O)OCC1c2ccccc2-c2ccccc21)C(=O)NC(C)(C)C(=O)N[C@@H](Cc1ccc(Br)cc1)C(=O)O`: the half-life at 400 µM in data set [4] was 8.6 h. Also, in data set [1], the EC50 is above 200 nM. The compound further showed an IC50 in data set [2] of 1.91 nM. Moreover, in data set [3], the Activity is recorded as 1 mmHg.

Turning to `CCCC[C@H](NC(=O)[C@@H]1CCCN1C(=O)CNC(=O)[C@H](CCCCN)NC(=O)[C@H](Cc1c[nH]cn1)NC(=O)[C@H](CO)NC(=O)[C@H](CC(C)C)N(C)C(=O)[C@H](CCCNC(=N)N)NC(=O)[C@@H]1CCCN1C(=O)[C@H](CCCNC(=N)N)NC(=O)[C@H](CCC(N)=O)NC(=O)CCOCCOCCOCCOCCOCCOCCNC(=O)OCC1c2ccccc2-c2ccccc21)C(=O)NC(C)(C)C(=O)N[C@@H](Cc1ccc(Br)cc1)C(=O)O`, in data set [4], the half-life at 400 µM was 6.9 h. In addition, the EC50 in data set [1] is 49 nM. Also, the IC50 in data set [2] is 3.02 nM. Besides, in data set [3], the Activity was 9 mmHg.

Consider `CSCC[C@H](NC(=O)[C@@H]1CCCN1C(=O)CNC(=O)[C@H](CCCCN)NC(=O)[C@H](Cc1c[nH]cn1)NC(=O)[C@H](CO)NC(=O)[C@H](CC(C)C)NC(=O)[C@H](CCCNC(=N)N)NC(=O)[C@@H]1CCCN1C(=O)[C@H](CCCNC(=N)N)NC(=O)[C@H](CCC(N)=O)NC(=O)[C@H](CCCNC(=N)N)NC(=O)[C@H](C)NC(=O)[C@H](Cc1ccccc1)NC(=O)[C@@H](N)CCCCN)C(=O)N1CCC[C@H]1C(=O)N[C@@H](Cc1ccccc1)C(=O)O`, for which the EC50 in data set [1] was 39.8 nM. The IC50 in data set [2] is 1.41 nM. Besides, the Activity in data set [3] was found to be 1 mmHg.

As to `CCCC[C@H](NC(=O)[C@@H]1CCCN1C(=O)CNC(=O)[C@H](CCCCN)NC(=O)[C@H](Cc1c[nH]cn1)NC(=O)[C@H](CO)NC(=O)[C@H](CC(C)C)NC(=O)[C@H](CCCNC(=N)N)NC(=O)[C@@H]1CCCN1C(=O)[C@H](CCCNC(=N)N)NC(=O)[C@H](CCC(N)=O)NC(=O)[C@H](CCCNC(=N)N)NC(=O)[C@H](CCCNC(=N)N)NC(=O)[C@H](Cc1ccccc1)NC(=O)[C@H](C)N)C(=O)NC(C)(C)C(=O)N[C@@H](Cc1ccc(Br)cc1)C(=O)O` (H-AFRRQRPRLSHKGP[Nle][Aib][Phe(4-Br)]-OH), in data set [2], the IC50 is 0.2 nM.

On to `CCCC[C@H](NC(=O)[C@@H]1CCCN1C(=O)CNC(=O)[C@H](CCCCN)NC(=O)[C@H](Cc1c[nH]cn1)NC(=O)[C@H](CO)NC(=O)[C@H](CC(C)C)N(C)C(=O)[C@H](CCCNC(=N)N)NC(=O)[C@@H]1CCCN1C(=O)[C@H](CCCNC(=N)N)NC(=O)[C@H](CCC(N)=O)NC(=O)[C@H](CCCNC(=N)N)NC(=O)[C@H](CCCNC(=N)N)NC(=O)[C@H](Cc1ccccc1)NC(=O)[C@H](CCCCN)NC(=O)CCOCCOCCOCCOCCOCCOCCOCCNC(=O)[C@@H](N)Cc1ccccc1)C(=O)NC(C)(C)C(=O)N[C@@H](Cc1ccc(Br)cc1)C(=O)O` (H-F[PEG7]KFRRQRPR[NMeL]SHKGP[Nle][Aib][Phe(4-Br)]-OH), for which, in data set [4], the half-life at 400 µM is 6.4 h. In data set [1], the EC50 is 25.7 nM. The compound also gave an IC50 in data set [2] of 1.7 nM. The Activity in data set [3] was 24 mmHg.

`CCCC[C@H](NC(=O)[C@@H]1CCCN1C(=O)CNC(=O)[C@H](CCCCN)NC(=O)[C@H](Cc1c[nH]cn1)NC(=O)[C@H](CO)NC(=O)[C@H](CC(C)C)NC(=O)[C@H](CCCNC(=N)N)NC(=O)[C@@H]1CCCN1C(=O)[C@H](CCCNC(=N)N)NC(=O)[C@H](CCC(N)=O)NC(=O)[C@H](CCCNC(=N)N)NC(=O)[C@H](CCCNC(=N)N)NC(=O)[C@H](C)NC(=O)[C@@H](N)CCCCN)C(=O)NC(C)(C)C(=O)N[C@@H](Cc1ccc(Br)cc1)C(=O)O` (H-KARRQRPRLSHKGP[Nle][Aib][Phe(4-Br)]-OH) had an IC50 in data set [2] of 0.295 nM.

Take `CCCC[C@H](NC(=O)[C@@H]1CCCN1C(=O)CNC(=O)[C@H](CCCCN)NC(=O)[C@H](Cc1c[nH]cn1)NC(=O)[C@H](CO)NC(=O)[C@H](CC(C)C)NC(=O)[C@H](CCCNC(=N)N)NC(=O)[C@@H]1CCCN1C(=O)[C@H](CCCNC(=N)N)NC(=O)[C@H](CCC(N)=O)NC(=O)[C@H](CCCNC(=N)N)NC(=O)[C@H](C)NC(=O)[C@H](Cc1ccccc1)NC(=O)[C@@H](N)CCCCN)C(=O)NC(C)(C)C(=O)N[C@@H](Cc1ccc(Br)cc1)C(=O)O` (H-KFARQRPRLSHKGP[Nle][Aib][Phe(4-Br)]-OH): the IC50 in data set [2] was 0.219 nM.

As for `CCCC[C@H](NC(=O)[C@@H]1CCCN1C(=O)CNC(=O)[C@H](CCCCN)NC(=O)[C@H](Cc1c[nH]cn1)NC(=O)[C@H](CO)NC(=O)[C@H](CC(C)C)NC(=O)[C@H](CCCNC(=N)N)NC(=O)[C@@H]1CCCN1C(=O)[C@H](CCCNC(=N)N)NC(=O)[C@H](CCC(N)=O)NC(=O)[C@H](C)NC(=O)[C@H](CCCNC(=N)N)NC(=O)[C@H](Cc1ccccc1)NC(=O)[C@@H](N)CCCCN)C(=O)NC(C)(C)C(=O)N[C@@H](Cc1ccc(Br)cc1)C(=O)O` (H-KFRAQRPRLSHKGP[Nle][Aib][Phe(4-Br)]-OH), in data set [2], the IC50 was 0.302 nM.

In the case of `CCCC[C@H](NC(=O)[C@@H]1CCCN1C(=O)CNC(=O)[C@H](CCCCN)NC(=O)[C@H](Cc1c[nH]cn1)NC(=O)[C@H](CO)NC(=O)[C@H](CC(C)C)N(C)C(=O)[C@H](CCCNC(=N)N)NC(=O)[C@@H]1CCCN1C(=O)[C@H](CCCNC(=N)N)NC(=O)[C@H](CCC(N)=O)NC(=O)[C@H](CCCNC(=N)N)N(C)C(=O)[C@H](CCCNC(=N)N)NC(=O)[C@H](Cc1ccccc1)NC(=O)[C@@H](N)CCCCN)C(=O)NC(C)(C)C(=O)N[C@@H](Cc1ccc(Br)cc1)C(=O)O` (H-KFR[NMeR]QRPR[NMeL]SHKGP[Nle][Aib][Phe(4-Br)]-OH), the half-life at 400 µM in data set [4] is 5.2 h. Besides, the EC50 in data set [1] is 3.47 nM. Also, the IC50 in data set [2] was 1.51 nM. In data set [3], the Activity turned out to be 14 mmHg.

On to `CCCC[C@H](NC(=O)[C@@H]1CCCN1C(=O)CNC(=O)[C@H](CCCCN)NC(=O)[C@H](Cc1c[nH]cn1)NC(=O)[C@H](CO)NC(=O)[C@H](CC(C)C)N(C)C(=O)[C@H](CCCNC(=N)N)NC(=O)[C@@H]1CCCN1C(=O)[C@H](CCCNC(=N)N)NC(=O)[C@H](CCC(N)=O)NC(=O)[C@](C)(CCCNC(=N)N)NC(=O)[C@H](CCCNC(=N)N)NC(=O)[C@H](Cc1ccccc1)NC(=O)[C@@H](N)CCCCN)C(=O)NC(C)(C)C(=O)N[C@@H](Cc1ccc(Br)cc1)C(=O)O` (H-KFR[αMeR]QRPR[NMeL]SHKGP[Nle][Aib][Phe(4-Br)]-OH), for which, in data set [4], the half-life at 400 µM is 7.1 h. The EC50 in data set [1] is 2.4 nM. In addition, in data set [2], the IC50 is 1 nM. Moreover, the Activity in data set [3] was found to be 18 mmHg.
